Laboratory results as given in PubChem BioAssay AID588343 (Broad Institute, 2011).
Several values for one entry are separate records, joined by “and”; a condition that tells them apart may be missing. Equal values may be shown once. Results filed as inconclusive are left out.

Test system: HEK293 LMP1 TES2 NF-kB luciferase reporter, 16 h
Test: EBV LMP1 TES2 canonical NF-kB signalling blockers – cell-based, HEK293, luciferase, cherry-pick, dose response (AID 588343);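 further: potency of compounds lowering the induced NF-kB luciferase signal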

Compound `Nc1ccn([C@@H]2O[C@H](CO)[C@@H](O)C2O)c(=O)n1` (stereo partly specified) has an AC50 of 4970 nM.
Work on `Nc1ccn([C@@H]2O[C@H](CO)[C@@H](O)[C@@H]2O)c(=O)n1` yielded an AC50 of 13200 nM.
`CCN1CCN(Cc2ccc(NC(=O)c3ccc(C)c(NC(=O)c4cccc5[nH]ccc45)c3)cc2C(F)(F)F)CC1` was tested, and the AC50 was 418 nM and 146 nM.
For `Cc1ccc(C(=O)Nc2cccc(C(F)(F)F)c2)cc1NC(=O)c1ccno1`, the AC50 was 816 nM and 5400 nM.
Compound `COc1ccc(O)c2c(=O)c3c(OC)cc4c(c3oc12)C1C=COC1O4` (stereo unspecified) has an AC50 of 698 nM.
With `CCN1CCN(Cc2ccc(NC(=O)c3ccc(C)c(NC(=O)N4CCNC4=O)c3)cc2C(F)(F)F)CC1` the AC50 was 484 nM and 1060 nM and 977 nM.
